{"source": "patent US20260265538A1", "about": "“Aqueous Industrial Product Stabilized Against Microbial Contamination” (Thor GmbH, priority 2023, published 2026)", "test_system": "Bacteria mixture 2 (alkaliphilic bacteria of the Nesterenkonia & Alkalibacterium genus)", "test": "Repetitive stress test of paints with bacteria mixture 2, semiquantitative evaluation (examples 4 and 5)", "format": "cell-based", "parameters": "key to Bacterial growth after inoculation: 0: No growth; Minimal growth, 1 to 10 colonies visible over the entire streak; 2: Light growth, maximum 100 colonies; Moderate growth, maximum 300 to 400 colonies; Uniform growth, >400 colonies, single colonies still clearly recognizable; 5: Heavy growth, too many colonies to count, but no growth over the entire streak; 6: Full growth, barely any single colonies still apparent, growth over the entire streak", "conditions": "Table 4", "text": "Paints 1 to 3 were mixed and homogenized with various concentrations of the guanidinium salts to be tested.\nThe batches obtained of the paint thus prepared were inoculated repeatedly with a mixture of different wild-type bacterial strains that are of practical relevance with regard to contamination. These bacteria had previously been isolated from commercial emulsion paints containing conventional preservatives (bacteria mixture 1, Pseudomonas genus), which are microbially contaminated in practice, and commercial so-called preservative-free alkaline emulsion paints (bacteria mixture 2, alkaliphilic bacteria of the Nesterenkonia & Alkalibacterium genus), which are microbially contaminated in practice.\n• Nesterenkonia sp. DSM 108520 • Nesterenkonia sp. DSM 108521 • Alkalibacterium pelagium DSM 108522 • Nesterenkonia massiliensis DSM 110679 • Nesterenkonia sp. DSM 108519\nThe inoculum was added to the respective sample in each inoculation at 2% (v/w) as a fresh cell suspension in a physiological saline solution (0.9% NaCl). The cell count of the added inoculum in example 1 was 10^5/ml, in examples 2 to 5 10^9/ml, and in example 6 10^6/ml, each in equal portions consisting of the individual bacterial strains. The cell suspension was produced by growing the individual bacteria at 30° C. for 24 h in liquid culture on a shaker. The medium used to grow the bacteria from bacteria mixture 1 was Müller-Hinton liquid medium. Bacteria from bacteria mixture 2 were grown in Müller-Hinton liquid medium that had been adjusted to pH 9.5-9.7 with an alkaline buffer solution beforehand. After growing, the individual liquid cultures were centrifuged, and the cells were resuspended in physiological saline solution. In order to adjust the mixture to the desired cell count, the individual bacteria suspensions, if necessary, were diluted accordingly before being combined with saline solution. The cell count of the inoculum was determined in each case by chamber counting.\nIn examples 2 to 6, what is called a repetitive stress test with bacteria was conducted by inoculating the samples at particular time intervals repeatedly with a bacteria suspension having a cell count of 10^9/ml (2% v/w) and monitoring the evolution of the bacteria by a semiquantitative evaluation method. After each inoculation, the samples were incubated at 30° C. for 6 days (bacteria mixture 1 and 3) or 7 and 14 days (bacteria mixture 2), and after these periods bacterial infestation was evaluated semiquantitatively in each case. For this purpose, an aliquot was taken from each sample after homogenization using a sterile plastic inoculation loop (10 μl) and streaked evenly on agar plates (bacteria mixture 1 and 3 on tryptic soy agar, bacteria mixture 2 on DSMZ 31 alkaline nutrient agar). The streaked agar plates were then incubated at 30° C. for 48 h (bacteria mixture 1 and 3) or 5 to 7 days (bacteria mixture 2). After incubation, the bacterial colonies grown on the agar plates were visually evaluated and quantified according to the following scheme:\nA total of 3 inoculation cycles was performed in each repetitive stress test.\nInoculation 2% (w/v) with Bacteria Mixture 2, 10^9 CFU/ml", "data": [{"smiles": "N=C(N)N.N=C(N)N.O=C(O)O", "note": "[guanidine carbonate]", "values": [{"measurement": "Bacterial growth after inoculation", "setting": "Paint 1, +0.1% guanidine carbonate (656 ppm guanidine), pH 9.1, 1. inoculation, 7 d", "value": "0/0"}, {"measurement": "Bacterial growth after inoculation", "setting": "Paint 1, +0.1% guanidine carbonate (656 ppm guanidine), pH 9.1, 1. inoculation, 14 d", "value": "0/0"}, {"measurement": "Bacterial growth after inoculation", "setting": "Paint 1, +0.1% guanidine carbonate (656 ppm guanidine), pH 9.1, 2. inoculation, 7 d", "value": "0/0"}, {"measurement": "Bacterial growth after inoculation", "setting": "Paint 1, +0.1% guanidine carbonate (656 ppm guanidine), pH 9.1, 2. inoculation, 14 d", "value": "0/0"}, {"measurement": "Bacterial growth after inoculation", "setting": "Paint 1, +0.1% guanidine carbonate (656 ppm guanidine), pH 9.1, 3. inoculation, 7 d", "value": "6/6"}, {"measurement": "Bacterial growth after inoculation", "setting": "Paint 1, +0.1% guanidine carbonate (656 ppm guanidine), pH 9.1, 3. inoculation, 14 d", "value": "6/6"}, {"measurement": "Bacterial growth after inoculation", "setting": "Paint 1, +0.15% guanidine carbonate (984 ppm guanidine), pH 9.4, 1. inoculation, 7 d", "value": "0/0"}, {"measurement": "Bacterial growth after inoculation", "setting": "Paint 1, +0.15% guanidine carbonate (984 ppm guanidine), pH 9.4, 1. inoculation, 14 d", "value": "0/0"}, {"measurement": "Bacterial growth after inoculation", "setting": "Paint 1, +0.15% guanidine carbonate (984 ppm guanidine), pH 9.4, 2. inoculation, 7 d", "value": "0/0"}, {"measurement": "Bacterial growth after inoculation", "setting": "Paint 1, +0.15% guanidine carbonate (984 ppm guanidine), pH 9.4, 2. inoculation, 14 d", "value": "0/0"}, {"measurement": "Bacterial growth after inoculation", "setting": "Paint 1, +0.15% guanidine carbonate (984 ppm guanidine), pH 9.4, 3. inoculation, 7 d", "value": "0/0"}, {"measurement": "Bacterial growth after inoculation", "setting": "Paint 1, +0.15% guanidine carbonate (984 ppm guanidine), pH 9.4, 3. inoculation, 14 d", "value": "0/0"}, {"measurement": "Bacterial growth after inoculation", "setting": "Paint 1, +0.2% guanidine carbonate (1312 ppm guanidine), pH 9.6, 1. inoculation, 7 d", "value": "0/0"}, {"measurement": "Bacterial growth after inoculation", "setting": "Paint 1, +0.2% guanidine carbonate (1312 ppm guanidine), pH 9.6, 1. inoculation, 14 d", "value": "0/0"}, {"measurement": "Bacterial growth after inoculation", "setting": "Paint 1, +0.2% guanidine carbonate (1312 ppm guanidine), pH 9.6, 2. inoculation, 7 d", "value": "0/0"}, {"measurement": "Bacterial growth after inoculation", "setting": "Paint 1, +0.2% guanidine carbonate (1312 ppm guanidine), pH 9.6, 2. inoculation, 14 d", "value": "0/0"}, {"measurement": "Bacterial growth after inoculation", "setting": "Paint 1, +0.2% guanidine carbonate (1312 ppm guanidine), pH 9.6, 3. inoculation, 7 d", "value": "0/0"}, {"measurement": "Bacterial growth after inoculation", "setting": "Paint 1, +0.2% guanidine carbonate (1312 ppm guanidine), pH 9.6, 3. inoculation, 14 d", "value": "0/0"}, {"measurement": "Bacterial growth after inoculation", "setting": "Paint 1, +0.25% guanidine carbonate (1640 ppm guanidine), pH 9.7, 1. inoculation, 7 d", "value": "0/0"}, {"measurement": "Bacterial growth after inoculation", "setting": "Paint 1, +0.25% guanidine carbonate (1640 ppm guanidine), pH 9.7, 1. inoculation, 14 d", "value": "0/0"}, {"measurement": "Bacterial growth after inoculation", "setting": "Paint 1, +0.25% guanidine carbonate (1640 ppm guanidine), pH 9.7, 2. inoculation, 7 d", "value": "0/0"}, {"measurement": "Bacterial growth after inoculation", "setting": "Paint 1, +0.25% guanidine carbonate (1640 ppm guanidine), pH 9.7, 2. inoculation, 14 d", "value": "0/0"}, {"measurement": "Bacterial growth after inoculation", "setting": "Paint 1, +0.25% guanidine carbonate (1640 ppm guanidine), pH 9.7, 3. inoculation, 7 d", "value": "0/0"}, {"measurement": "Bacterial growth after inoculation", "setting": "Paint 1, +0.25% guanidine carbonate (1640 ppm guanidine), pH 9.7, 3. inoculation, 14 d", "value": "0/0"}, {"measurement": "Bacterial growth after inoculation", "setting": "Paint 1, +0.3% guanidine carbonate (1968 ppm guanidine), pH 9.7, 1. inoculation, 7 d", "value": "0/0"}, {"measurement": "Bacterial growth after inoculation", "setting": "Paint 1, +0.3% guanidine carbonate (1968 ppm guanidine), pH 9.7, 1. inoculation, 14 d", "value": "0/0"}, {"measurement": "Bacterial growth after inoculation", "setting": "Paint 1, +0.3% guanidine carbonate (1968 ppm guanidine), pH 9.7, 2. inoculation, 7 d", "value": "0/0"}, {"measurement": "Bacterial growth after inoculation", "setting": "Paint 1, +0.3% guanidine carbonate (1968 ppm guanidine), pH 9.7, 2. inoculation, 14 d", "value": "0/0"}, {"measurement": "Bacterial growth after inoculation", "setting": "Paint 1, +0.3% guanidine carbonate (1968 ppm guanidine), pH 9.7, 3. inoculation, 7 d", "value": "0/0"}, {"measurement": "Bacterial growth after inoculation", "setting": "Paint 1, +0.3% guanidine carbonate (1968 ppm guanidine), pH 9.7, 3. inoculation, 14 d", "value": "0/0"}, {"measurement": "Bacterial growth after inoculation", "setting": "Paint 1, +0.4% guanidine carbonate (2624 ppm guanidine), pH 9.9, 1. inoculation, 7 d", "value": "0/0"}, {"measurement": "Bacterial growth after inoculation", "setting": "Paint 1, +0.4% guanidine carbonate (2624 ppm guanidine), pH 9.9, 1. inoculation, 14 d", "value": "0/0"}, {"measurement": "Bacterial growth after inoculation", "setting": "Paint 1, +0.4% guanidine carbonate (2624 ppm guanidine), pH 9.9, 2. inoculation, 7 d", "value": "0/0"}, {"measurement": "Bacterial growth after inoculation", "setting": "Paint 1, +0.4% guanidine carbonate (2624 ppm guanidine), pH 9.9, 2. inoculation, 14 d", "value": "0/0"}, {"measurement": "Bacterial growth after inoculation", "setting": "Paint 1, +0.4% guanidine carbonate (2624 ppm guanidine), pH 9.9, 3. inoculation, 7 d", "value": "0/0"}, {"measurement": "Bacterial growth after inoculation", "setting": "Paint 1, +0.4% guanidine carbonate (2624 ppm guanidine), pH 9.9, 3. inoculation, 14 d", "value": "0/0"}, {"measurement": "Bacterial growth after inoculation", "setting": "Paint 1, +0.5% guanidine carbonate (3280 ppm guanidine), pH 10.1, 1. inoculation, 7 d", "value": "0/0"}, {"measurement": "Bacterial growth after inoculation", "setting": "Paint 1, +0.5% guanidine carbonate (3280 ppm guanidine), pH 10.1, 1. inoculation, 14 d", "value": "0/0"}, {"measurement": "Bacterial growth after inoculation", "setting": "Paint 1, +0.5% guanidine carbonate (3280 ppm guanidine), pH 10.1, 2. inoculation, 7 d", "value": "0/0"}, {"measurement": "Bacterial growth after inoculation", "setting": "Paint 1, +0.5% guanidine carbonate (3280 ppm guanidine), pH 10.1, 2. inoculation, 14 d", "value": "0/0"}, {"measurement": "Bacterial growth after inoculation", "setting": "Paint 1, +0.5% guanidine carbonate (3280 ppm guanidine), pH 10.1, 3. inoculation, 7 d", "value": "0/0"}, {"measurement": "Bacterial growth after inoculation", "setting": "Paint 1, +0.5% guanidine carbonate (3280 ppm guanidine), pH 10.1, 3. inoculation, 14 d", "value": "0/0"}, {"measurement": "Bacterial growth after inoculation", "setting": "Paint 1, +1.0% guanidine carbonate (6560 ppm guanidine), pH 10.4, 1. inoculation, 7 d", "value": "0/0"}, {"measurement": "Bacterial growth after inoculation", "setting": "Paint 1, +1.0% guanidine carbonate (6560 ppm guanidine), pH 10.4, 1. inoculation, 14 d", "value": "0/0"}, {"measurement": "Bacterial growth after inoculation", "setting": "Paint 1, +1.0% guanidine carbonate (6560 ppm guanidine), pH 10.4, 2. inoculation, 7 d", "value": "0/0"}, {"measurement": "Bacterial growth after inoculation", "setting": "Paint 1, +1.0% guanidine carbonate (6560 ppm guanidine), pH 10.4, 2. inoculation, 14 d", "value": "0/0"}, {"measurement": "Bacterial growth after inoculation", "setting": "Paint 1, +1.0% guanidine carbonate (6560 ppm guanidine), pH 10.4, 3. inoculation, 7 d", "value": "0/0"}, {"measurement": "Bacterial growth after inoculation", "setting": "Paint 1, +1.0% guanidine carbonate (6560 ppm guanidine), pH 10.4, 3. inoculation, 14 d", "value": "0/0"}, {"measurement": "Bacterial growth after inoculation", "setting": "Paint 2, +0.1% guanidine carbonate (656 ppm guanidine), pH 8.9, 1. inoculation, 7 d", "value": "2 (Light growth, maximum 100 colonies)"}, {"measurement": "Bacterial growth after inoculation", "setting": "Paint 2, +0.1% guanidine carbonate (656 ppm guanidine), pH 8.9, 1. inoculation, 14 d", "value": 0}, {"measurement": "Bacterial growth after inoculation", "setting": "Paint 2, +0.1% guanidine carbonate (656 ppm guanidine), pH 8.9, 2. inoculation, 7 d", "value": 6}]}]}
